From US12076315B2 (Clear Creek Bio, Inc., priority 2020, dated 2024)
Entries after “also recorded” stand apart in the source; their conditions may differ. Read-outs that look alike come from different tables or passages of the source.

Conditions: for Time after which the polymorph converts to Pattern C / Stability of the polymorphic form under ambient conditions (temperature and humidity): sodium salt; for Stability of the polymorphic form under ambient conditions (temperature and humidity): unstable forms convert to Pattern C; for Comments: stability of the polymorph: Table 3, solid polymorph of brequinar sodium salt on storage

| SMILES | Time after which the polymorph converts to Pattern C (closed cap storage) | Stability of the polymorphic form under ambient conditions (temperature and humidity) | Comments: stability of the polymorph | Time after which the polymorph converts to Pattern C (at ambient condition) | Stability of the polymorphic form under ambient conditions (temperature and humidity) (listed as polymorphic form C) |
| --- | --- | --- | --- | --- | --- |
| Cc1c(-c2ccc(-c3ccccc3F)cc2)nc2ccc(F)cc2c1C(=O)[O-].[Na+] [Pattern E, 6-Flouro-2-(2′-fluoro-1,1′-biphenyl-4-yl)-3-methyl-4-quinolinecarboxylic acid sodium salt] | Pattern C after 1 week | unstable |  |  |  |
| Cc1c(-c2ccc(-c3ccccc3F)cc2)nc2ccc(F)cc2c1C(=O)[O-].[Na+] [Pattern G, 6-Flouro-2-(2′-fluoro-1,1′-biphenyl-4-yl)-3-methyl-4-quinolinecarboxylic acid sodium salt] |  | unstable | 15.3%), unstable, convert | to Pattern C after 2 weeks |  |
| Cc1c(-c2ccc(-c3ccccc3F)cc2)nc2ccc(F)cc2c1C(=O)[O-].[Na+] [Pattern D, 6-Flouro-2-(2′-fluoro-1,1′-biphenyl-4-yl)-3-methyl-4-quinolinecarboxylic acid sodium salt] |  | unstable |  | C after 3 days at ambient |  |
| Cc1c(-c2ccc(-c3ccccc3F)cc2)nc2ccc(F)cc2c1C(=O)[O-].[Na+] [Pattern F, 6-Flouro-2-(2′-fluoro-1,1′-biphenyl-4-yl)-3-methyl-4-quinolinecarboxylic acid sodium salt] | Pattern C after 1 week | unstable |  |  |  |
| Cc1c(-c2ccc(-c3ccccc3F)cc2)nc2ccc(F)cc2c1C(=O)[O-].[Na+] [Pattern B, 6-Flouro-2-(2′-fluoro-1,1′-biphenyl-4-yl)-3-methyl-4-quinolinecarboxylic acid sodium salt] |  | unstable | hydrate KF 4.8% unstable, | convert to Pattern C after 4 days |  |
| Cc1c(-c2ccc(-c3ccccc3F)cc2)nc2ccc(F)cc2c1C(=O)[O-].[Na+] [Pattern J, 6-Flouro-2-(2′-fluoro-1,1′-biphenyl-4-yl)-3-methyl-4-quinolinecarboxylic acid sodium salt] | C after 2 weeks (closed cap | unstable | Unstable, convert to Pattern |  |  |
| Cc1c(-c2ccc(-c3ccccc3F)cc2)nc2ccc(F)cc2c1C(=O)[O-].[Na+] [Pattern C, 6-Flouro-2-(2′-fluoro-1,1′-biphenyl-4-yl)-3-methyl-4-quinolinecarboxylic acid sodium salt] |  |  |  |  | stable; also recorded: most stable |
| Cc1c(-c2ccc(-c3ccccc3F)cc2)nc2ccc(F)cc2c1C(=O)[O-].[Na+] [Pattern I, 6-Flouro-2-(2′-fluoro-1,1′-biphenyl-4-yl)-3-methyl-4-quinolinecarboxylic acid sodium salt] |  | unstable | KF 7.3%, unstable, | 2 days at ambient condition. |  |
| Cc1c(-c2ccc(-c3ccccc3F)cc2)nc2ccc(F)cc2c1C(=O)[O-].[Na+] [Pattern A, 6-Flouro-2-(2′-fluoro-1,1′-biphenyl-4-yl)-3-methyl-4-quinolinecarboxylic acid sodium salt] |  | metastable |  |  |  |
